By EC50 is commonly meant the midpoint of the concentration-response curve.

The values below come from patent publication US10131702B2, “Glucagon-GLP-1-GIP triple agonist compounds” (priority 2013, dated 2018).

Common to all, as to assay type: cell-based
The target in experiment [1] is T1, human GCG R (Homo sapiens, UniProt P47871).
T1 construct: expressed in transfected cells
The experiment is described as follows: cAMP induction in HEK293 cells expressing human GCG R (AlphaScreen cAMP kit). On the technique in general: Bead proximity is the source of the signal in Alpha formats.
Description: (§1) Briefly, HEK293 cells expressing the human GIP R, GLP-1 R or GCG R (stable cell lines generated through transfection of the cDNA for human GIP R, GLP-1 R or GCG R and selection of stable clones) were seeded at 30,000 cells/well in 96-well microtiter plates coated with 0.01% poly-L-lysine, and grown for 1 day in culture in 200 μl growth medium (DMEM, 10% FCS, Penicillin (100 IU/ml), Streptomycin (100 μg/ml)). On the day of analysis, growth medium was removed and the cells were washed once with 150 μl Tyrode's buffer (Tyrode's Salts (9.6 g/l), 10 mM HEPES, pH 7.4). […] The Assay buffer was removed and cells are lysed in 80 μl Lysis buffer (0.1% w/v BSA, 5 mM HEPES, 0.3% v/v Tween-20) per well. From each well 10 μl of lysed cells were transferred to a 384-well plate and mixed with 15 μl bead-mix (1 Unit/15 μl anti-cAMP Acceptor Beads, 1 Unit/15 μl Donor Beads, and 1 Unit/15 μl Biotinylated cAMP in Assay Buffer). The plates were mixed and incubated in the dark for an hour at room temperature before measuring using an Envision™ plate reader (Perkin-Elmer).
(§2) The resulting cAMP curves were plotted as absolute cAMP concentrations (nM) over log (test compound concentration) and analyzed using the curve fitting program XLfit.
(§3) Parameters calculated to describe both the potency as well as the agonistic activity of each test compound on the receptors were:
(§4) EC50, a concentration resulting in a half-maximal elevation of cAMP levels, reflecting the potency of the test compound.

The target in experiment [2] is T2, human GLP-1 R (Homo sapiens, UniProt P43220).
T2 construct: expressed in transfected cells
T2 sequence (P43220 24-463): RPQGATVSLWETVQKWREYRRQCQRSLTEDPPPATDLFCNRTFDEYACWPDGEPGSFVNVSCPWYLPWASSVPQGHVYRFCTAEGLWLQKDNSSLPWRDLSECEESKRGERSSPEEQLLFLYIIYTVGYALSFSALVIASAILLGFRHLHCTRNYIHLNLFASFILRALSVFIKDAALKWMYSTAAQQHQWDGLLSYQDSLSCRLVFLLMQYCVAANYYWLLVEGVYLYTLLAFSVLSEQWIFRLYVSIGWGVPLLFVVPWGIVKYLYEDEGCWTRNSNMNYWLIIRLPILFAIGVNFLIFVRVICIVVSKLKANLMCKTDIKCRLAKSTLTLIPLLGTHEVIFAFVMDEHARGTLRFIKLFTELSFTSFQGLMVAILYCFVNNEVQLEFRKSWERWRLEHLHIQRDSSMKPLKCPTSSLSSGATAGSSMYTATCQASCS
Nature of the experiment: cAMP induction in HEK293 cells expressing human GLP-1 R (AlphaScreen cAMP kit). Particulars: average EC50, cAMP, HEK293 cells expressing human GLP-1 R, read-out: GLP1 R (EC50 in nM).

Experiment [3] deals with T3, human GIP R (Homo sapiens, UniProt P48546).
T3 construct: expressed in transfected cells
T3 sequence (P48546 22-466): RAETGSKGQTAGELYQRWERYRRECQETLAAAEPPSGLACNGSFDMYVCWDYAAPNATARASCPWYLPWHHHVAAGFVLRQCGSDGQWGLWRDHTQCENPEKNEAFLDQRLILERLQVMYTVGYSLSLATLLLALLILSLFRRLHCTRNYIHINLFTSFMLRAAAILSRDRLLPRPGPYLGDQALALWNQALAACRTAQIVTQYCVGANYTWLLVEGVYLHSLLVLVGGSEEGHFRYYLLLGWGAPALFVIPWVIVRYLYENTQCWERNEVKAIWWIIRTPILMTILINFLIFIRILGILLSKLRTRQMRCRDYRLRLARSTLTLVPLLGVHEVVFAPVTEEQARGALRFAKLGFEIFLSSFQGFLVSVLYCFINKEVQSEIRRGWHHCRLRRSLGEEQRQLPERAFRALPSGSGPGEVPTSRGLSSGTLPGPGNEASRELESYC
Nature of the experiment: cAMP induction in HEK293 cells expressing human GIP R (AlphaScreen cAMP kit).
Description: as §1, §2, §3, §4

[4] abbreviates: Table 2b (most comprehensive data), average EC50, cAMP, HEK293 cells expressing human GCG R, read-out: GCG R (EC50 in nM).
The mark [5] stands for this setting: Table 2b (most comprehensive data).
Setting [6] is: Table 2b (most comprehensive data), average EC50, cAMP, read-out: GIP R (EC50 in nM).
Where [7] appears, read: GIP R (EC50 in nM), Table 2, average EC50, cAMP.

SMILES strings stand for the structures. Where two headings read alike, the source gives them in different places. Numbered stars: 1 amine (or outer) side, 2 acyl side, 3 side chain; on linkers, the order of the positions; unused ones are H or OH. Square brackets hold non-standard residues; d marks the D form. Side chains are listed from the residue outwards. Peptide text beside a SMILES is read from it. * marks the point of attachment. C18 diacid = O=C(O)CCCCCCCCCCCCCCCCC(=O)*; γGlu = O=C(O)[C@H](CCC(=O)[*:2])N[*:1]; AEEA = NCCOCCOCC(=O)O; Aib = CC(C)(N)C(=O)O

T1 sequence (P47871 26-477): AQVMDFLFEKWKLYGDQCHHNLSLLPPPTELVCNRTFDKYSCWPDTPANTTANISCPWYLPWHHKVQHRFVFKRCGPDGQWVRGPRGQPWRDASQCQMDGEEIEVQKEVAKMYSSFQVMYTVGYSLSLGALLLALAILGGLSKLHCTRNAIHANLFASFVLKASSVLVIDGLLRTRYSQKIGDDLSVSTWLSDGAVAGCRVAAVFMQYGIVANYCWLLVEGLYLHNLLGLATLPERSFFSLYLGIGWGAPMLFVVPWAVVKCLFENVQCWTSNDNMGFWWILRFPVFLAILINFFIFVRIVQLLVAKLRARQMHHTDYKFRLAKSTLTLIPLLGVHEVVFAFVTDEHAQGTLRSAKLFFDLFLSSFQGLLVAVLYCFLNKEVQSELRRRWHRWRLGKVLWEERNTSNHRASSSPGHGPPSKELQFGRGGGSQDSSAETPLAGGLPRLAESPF

As for `CC[C@H](C)[C@H](NC(=O)[C@H](CO)NC(=O)[C@H](Cc1ccc(O)cc1)NC(=O)[C@H](CC(=O)O)NC(=O)[C@H](CO)NC(=O)[C@@H](NC(=O)[C@H](Cc1ccccc1)NC(=O)[C@@H](NC(=O)CNC(=O)[C@H](CCC(N)=O)NC(=O)C(C)(C)NC(=O)[C@@H](N)Cc1ccc(O)cc1)[C@@H](C)O)[C@@H](C)O)C(=O)N[C@@H](Cc1ccc(O)cc1)C(=O)N[C@@H](CC(C)C)C(=O)N[C@@H](CCC(=O)O)C(=O)N[C@@H](CCCCN)C(=O)N[C@@H](CCCCNC(=O)COCCOCCNC(=O)COCCOCCNC(=O)CC[C@H](NC(=O)CCCCCCCCCCCCCCCCC(=O)O)C(=O)O)C(=O)N[C@@H](C)C(=O)N[C@@H](C)C(=O)N[C@@H](CCCCN)C(=O)N[C@@H](CCC(=O)O)C(=O)N[C@@H](Cc1ccccc1)C(=O)N[C@H](C(=O)N[C@@H](CCC(=O)O)C(=O)N[C@@H](Cc1c[nH]c2ccccc12)C(=O)N[C@@H](CC(C)C)C(=O)N[C@@H](CC(C)C)C(=O)N[C@@H](CO)C(=O)N[C@@H](C)C(=O)NCC(=O)N1CCC[C@H]1C(=O)N[C@@H](CO)C(=O)N[C@@H](CO)C(=O)NCC(=O)N[C@@H](C)C(=O)N1CCC[C@H]1C(=O)N1CCC[C@H]1C(=O)N1CCC[C@H]1C(=O)N[C@@H](CO)C(N)=O)C(C)C` [Compound 38] (H-Y[Aib]QGTFTSDYSIYLEKK([AEEA-AEEA-γGlu-C18 diacid])AAKEFVEWLLSAGPSSGAPPPS-NH2), the EC50 was 0.27 nM in experiment [1] (setting [4]), 0.015 nM in experiment [2] (setting [5]) and 0.064 nM in experiment [3] (setting [6]).

As for `CCCCCCCCCCCCCCCC(=O)N[C@@H](CCC(=O)NCCCC[C@H](NC(=O)[C@H](CCC(=O)O)NC(=O)[C@H](CC(C)C)NC(=O)[C@H](Cc1ccc(O)cc1)NC(=O)[C@@H](NC(=O)[C@H](CO)NC(=O)[C@H](Cc1ccc(O)cc1)NC(=O)[C@H](CC(=O)O)NC(=O)[C@H](CO)NC(=O)[C@@H](NC(=O)[C@H](Cc1ccccc1)NC(=O)[C@@H](NC(=O)CNC(=O)[C@H](CCC(N)=O)NC(=O)C(C)(C)NC(=O)[C@@H](N)Cc1ccc(O)cc1)[C@@H](C)O)[C@@H](C)O)[C@@H](C)CC)C(=O)N[C@@H](CCCCN)C(=O)N[C@@H](C)C(=O)N[C@@H](C)C(=O)N[C@@H](CCCCN)C(=O)N[C@@H](CCC(=O)O)C(=O)N[C@@H](Cc1ccccc1)C(=O)N[C@H](C(=O)N[C@@H](CCC(=O)O)C(=O)N[C@@H](Cc1c[nH]c2ccccc12)C(=O)N[C@@H](CC(C)C)C(=O)N[C@@H](CC(C)C)C(=O)N[C@@H](CO)C(=O)N[C@@H](C)C(N)=O)C(C)C)C(=O)O` [Compound 24] (HELM PEPTIDE1{Y.[Aib].Q.G.T.F.T.S.D.Y.S.I.Y.L.E.K.K.A.A.K.E.F.V.E.W.L.L.S.A.[am]}|PEPTIDE2{[CCCCCCCCCCCCCCCC(=O)[*:2]].[gGlu]}$PEPTIDE1,PEPTIDE2,16:R3-2:R2$$$V2.0), the EC50 in experiment [1] was found to be 0.28 nM; in experiment [2] (Table 2), 0.091 nM; in experiment [2] (setting [5]), 0.091 nM; in experiment [3] (setting [7]) it was 0.1 nM; in experiment [3] (GIP R (EC50 in nM), Table 2b (most comprehensive data), average EC50, cAMP), 0.1 nM.

On to `CC[C@H](C)[C@H](NC(=O)[C@H](CO)NC(=O)[C@H](Cc1ccc(O)cc1)NC(=O)[C@H](CC(=O)O)NC(=O)[C@H](CO)NC(=O)[C@@H](NC(=O)[C@H](Cc1ccccc1)NC(=O)[C@@H](NC(=O)CNC(=O)[C@H](CCC(N)=O)NC(=O)C(C)(C)NC(=O)[C@@H](N)Cc1ccc(O)cc1)[C@@H](C)O)[C@@H](C)O)C(=O)N[C@@H](Cc1ccc(O)cc1)C(=O)N[C@@H](CC(C)C)C(=O)N[C@@H](CCC(=O)O)C(=O)N[C@@H](CCCCN)C(=O)N[C@@H](CCCCNC(=O)COCCOCCNC(=O)COCCOCCNC(=O)CC[C@H](NC(=O)CCCCCCCCCCCCCCCCC(=O)O)C(=O)O)C(=O)N[C@@H](C)C(=O)N[C@@H](CCC(N)=O)C(=O)N[C@@H](CCCNC(=N)N)C(=O)N[C@@H](C)C(=O)N[C@@H](Cc1ccccc1)C(=O)N[C@H](C(=O)N[C@@H](CCC(=O)O)C(=O)N[C@@H](Cc1c[nH]c2ccccc12)C(=O)N[C@@H](CC(C)C)C(=O)N[C@@H](CC(C)C)C(=O)N[C@@H](CCCNC(=N)N)C(=O)N[C@@H](C)C(N)=O)C(C)C` [Compound 51] (H-Y[Aib]QGTFTSDYSIYLEKK([AEEA-AEEA-γGlu-C18 diacid])AQRAFVEWLLRA-NH2), for which the values for the EC50 in experiment [1] (setting [4]), in experiment [2] (setting [5]) and in experiment [3] (setting [6]) were 1.4 nM, 0.026 nM and 0.033 nM, respectively.

`CC(C)C[C@H](NC(=O)[C@H](C)NC(=O)[C@H](CCCCN)NC(=O)[C@H](CO)NC(=O)[C@H](Cc1ccc(O)cc1)NC(=O)[C@H](CC(=O)O)NC(=O)[C@H](CO)NC(=O)[C@@H](NC(=O)[C@H](Cc1ccccc1)NC(=O)[C@@H](NC(=O)CNC(=O)[C@H](CCC(N)=O)NC(=O)C(C)(C)NC(=O)[C@@H](N)Cc1ccc(O)cc1)[C@@H](C)O)[C@@H](C)O)C(=O)N[C@@H](CC(=O)O)C(=O)N[C@@H](CO)C(=O)N[C@@H](CCCCN)C(=O)N[C@@H](C)C(=O)N[C@@H](C)C(=O)N[C@@H](Cc1c[nH]cn1)C(=O)N[C@@H](CC(=O)O)C(=O)N[C@@H](Cc1ccccc1)C(=O)N[C@H](C(=O)N[C@@H](CCC(=O)O)C(=O)N[C@@H](Cc1c[nH]c2ccccc12)C(=O)N[C@@H](CC(C)C)C(=O)N[C@@H](CC(C)C)C(=O)N[C@@H](CO)C(=O)N[C@@H](C)C(N)=O)C(C)C` [Compound 7] (HELM PEPTIDE1{Y.[Aib].Q.G.T.F.T.S.D.Y.S.K.A.L.D.S.K.A.A.H.D.F.V.E.W.L.L.S.A.[am]}$$$$V2.0): the EC50 in experiment [1] was determined as 0.086 nM; in experiment [2] (Table 2), 0.031 nM; in experiment [3] (setting [7]), 0.42 nM.

With `CC[C@H](C)[C@H](NC(=O)[C@H](CO)NC(=O)[C@H](Cc1ccc(O)cc1)NC(=O)[C@H](CC(=O)O)NC(=O)[C@H](CO)NC(=O)[C@@H](NC(=O)[C@H](Cc1ccccc1)NC(=O)[C@@H](NC(=O)CNC(=O)[C@H](CCC(N)=O)NC(=O)C(C)(C)NC(=O)[C@@H](N)Cc1ccc(O)cc1)[C@@H](C)O)[C@@H](C)O)C(=O)N[C@@H](Cc1ccc(O)cc1)C(=O)N[C@@H](CC(C)C)C(=O)N[C@@H](CC(=O)O)C(=O)N[C@@H](CCCCN)C(=O)N[C@@H](CCCCNC(=O)COCCOCCNC(=O)COCCOCCNC(=O)CC[C@H](NC(=O)CCCCCCCCCCCCCCCCC(=O)O)C(=O)O)C(=O)N[C@@H](C)C(=O)N[C@@H](CCC(N)=O)C(=O)N[C@@H](CCCNC(=N)N)C(=O)N[C@@H](C)C(=O)N[C@@H](Cc1ccccc1)C(=O)N[C@H](C(=O)N[C@@H](CCC(=O)O)C(=O)N[C@@H](Cc1c[nH]c2ccccc12)C(=O)N[C@@H](CC(C)C)C(=O)N[C@@H](CC(C)C)C(=O)N[C@@H](C)C(=O)N[C@@H](CCC(N)=O)C(=O)NCC(=O)N1CCC[C@H]1C(=O)N[C@@H](CO)C(=O)N[C@@H](CO)C(=O)NCC(=O)N[C@@H](C)C(=O)N1CCC[C@H]1C(=O)N1CCC[C@H]1C(=O)N1CCC[C@H]1C(=O)N[C@@H](CO)C(N)=O)C(C)C` [Compound 33] (H-Y[Aib]QGTFTSDYSIYLDKK([AEEA-AEEA-γGlu-C18 diacid])AQRAFVEWLLAQGPSSGAPPPS-NH2), the EC50 was found to be 0.58 nM in experiment [1] (setting [4]), 0.114 nM in experiment [2] (setting [5]) and 0.009 nM in experiment [3] (setting [6]).
